Consider 1 molecule from patent US20070104774A1, “Method for preparing phytosphingosine liposome composition” (priority 2003, published 2007).

A short description of data set [1]: Stability test of water lotion formulation of phytosphingosine liposome: size and sedimentation on storage at R.T. and low temperature. In kind it is physicochemical. Conditions: dissolved using an acid only such as lactic acid; as time went by and at low temperatures. As to the method:
For a liposome solution containing 4 wt. % of phytosphingosine prepared according to Examples 3 and 7 and a solution in which the liposome solution was diluted so as to make a final concentration of phytosphingosine be 0.5% in a water lotion product, it was examined a stability of phytosphingosine liposome in water lotion formulation, based on sizes and sedimentation states as time went by and sizes and sedimentation states when storing at R.T. and a low temperature, respectively. Water lotion formulations used in the above test are as follows. The unit is wt. %. In water lotion formulations of liposome containing phytosphingosine, results of size variations as time went by are as follows. The unit is nm.

For data set [2] the following is noted: cited from earlier work.

Consider `CCCCCCCCCCCCCC[C@@H](O)[C@@H](O)[C@@H](N)CO` [phytosphingosine], for which the behaviour on storage entry in data set [1] is recorded as “recrystallized”. In addition, in data set [2] (isocetyl alcohol solvent), the “solubility in isocetyl alcohol” value was 1 wt. %. The solubility in water result in data set [2] (water) was “never dissolved in water”.
